Measured values from the Kinase Knowledgebase extract (Sharma et al. 2016).

The molecules below were run against ROCK2 (human) (UniProt O75116) (assay: Assessment of ROCK2 Kinase Activity).
ROCK2 (human), sequence (O75116 whole entry, looked up): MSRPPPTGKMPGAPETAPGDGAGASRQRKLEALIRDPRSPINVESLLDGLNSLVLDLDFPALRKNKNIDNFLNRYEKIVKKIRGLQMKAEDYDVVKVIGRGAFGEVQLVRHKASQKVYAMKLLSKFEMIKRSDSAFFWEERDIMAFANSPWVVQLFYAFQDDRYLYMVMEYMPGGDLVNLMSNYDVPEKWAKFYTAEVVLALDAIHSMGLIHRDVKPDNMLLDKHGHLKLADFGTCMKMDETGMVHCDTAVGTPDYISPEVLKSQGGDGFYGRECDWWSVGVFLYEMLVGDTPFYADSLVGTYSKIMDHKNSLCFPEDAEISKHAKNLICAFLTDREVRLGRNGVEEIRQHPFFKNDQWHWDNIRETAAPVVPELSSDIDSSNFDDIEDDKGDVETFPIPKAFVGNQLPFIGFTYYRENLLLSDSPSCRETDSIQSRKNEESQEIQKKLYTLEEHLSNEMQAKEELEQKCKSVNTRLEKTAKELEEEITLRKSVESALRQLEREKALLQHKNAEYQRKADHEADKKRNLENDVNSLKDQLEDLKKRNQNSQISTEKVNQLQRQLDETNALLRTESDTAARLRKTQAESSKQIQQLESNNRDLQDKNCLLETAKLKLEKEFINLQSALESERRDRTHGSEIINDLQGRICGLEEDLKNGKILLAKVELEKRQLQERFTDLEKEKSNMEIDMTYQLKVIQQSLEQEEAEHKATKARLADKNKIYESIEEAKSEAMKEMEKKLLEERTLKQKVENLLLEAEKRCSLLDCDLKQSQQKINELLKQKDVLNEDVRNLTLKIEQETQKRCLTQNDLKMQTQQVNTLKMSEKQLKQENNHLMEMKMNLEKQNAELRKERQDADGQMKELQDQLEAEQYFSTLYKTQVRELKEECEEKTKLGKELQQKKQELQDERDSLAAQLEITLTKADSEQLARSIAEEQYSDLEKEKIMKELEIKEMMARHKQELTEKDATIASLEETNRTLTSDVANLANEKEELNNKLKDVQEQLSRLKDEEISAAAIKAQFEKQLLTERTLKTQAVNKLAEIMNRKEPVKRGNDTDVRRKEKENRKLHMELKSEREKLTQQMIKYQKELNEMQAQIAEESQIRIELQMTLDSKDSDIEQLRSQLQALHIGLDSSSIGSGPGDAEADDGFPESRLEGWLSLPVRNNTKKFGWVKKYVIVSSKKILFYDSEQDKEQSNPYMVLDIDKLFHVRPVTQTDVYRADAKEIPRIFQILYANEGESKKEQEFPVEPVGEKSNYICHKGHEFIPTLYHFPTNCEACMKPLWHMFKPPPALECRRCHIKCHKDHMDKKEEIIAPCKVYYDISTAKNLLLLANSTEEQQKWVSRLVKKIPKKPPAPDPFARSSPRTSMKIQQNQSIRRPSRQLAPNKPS

IC50, ≤ 1000 nM:
CCc1cncc2ccc(O[C@H]3CC[C@@H](N)CC3)cc12
COc1cc(Nc2cc3cc(O[C@H]4CC[C@@H](N)CC4)ccc3cn2)cc(OC)c1OC
c1cncc(CN[C@H]2CC[C@@H](Oc3ccc4cnccc4c3)CC2)c1
c1cc2cc(O[C@H]3CC[C@@H](NC4CC4)CC3)ccc2cn1
Clc1c(OC2CCC(NC3CCCCC3)CC2)ccc2cnccc12 (stereo not given)
CC(=O)Nc1ccc(CN[C@H]2CC[C@@H](Oc3ccc4cnccc4c3)CC2)cc1
N[C@H]1CC[C@@H](Oc2ccc3cnccc3c2Cl)CC1
N[C@H]1CC[C@@H](Oc2ccc3cncc(Cl)c3c2)CC1
CN(C)C=NS(=O)(=O)c1cc(CN[C@H]2CC[C@@H](Oc3ccc4cnccc4c3Cl)CC2)ccc1Cl
N[C@H]1CC[C@H](Oc2c(Cl)cc3cnccc3c2Cl)CC1
C=Cc1c(O[C@H]2CC[C@@H](N)CC2)ccc2cnccc12
CC(C)N[C@H]1CC[C@@H](Oc2ccc3cnccc3c2)CC1
CC1(c2ccc(CNC3CCC(Oc4ccc5cnccc5c4)CC3)cc2)NC(=O)NC1=O (stereo not given)
N[C@H]1CC[C@@H](Oc2ccc3cnccc3c2Br)CC1
N[C@H]1CC[C@@H](Oc2ccc3cnccc3c2-c2ccsc2)CC1
